Test: decomposition during emulsification at 70° C.
Format: physicochemical
Conditions: without antioxidants and weak acids
Protocol: The process of microencapsulation is performed adding the oil phase to the first water phase under high shear stress, being emulsified at 70° C.

In the case of abamectin, the decomposition during emulsification was 5-25%.

Reference: patent US9320270B2, “Method of field application of natural pesticides with reduced toxicity and high efficacy by means of microencapsulation” (priority 2009, dated 2016)
